Where two headings read alike, the source gives them in different places.
Assays:
[1] = test system: C. neoformans strain H99; experiment: Murine cryptococcal meningitis model with ABT, dose-response study; type: in vivo, Cryptococcus neoformans; conditions: control animals with daily 100-mg/kg ABT without an APX compound
Procedure: A dose-response study was performed with APX2096 and APX2097 to confirm the observed activity. In this study, QD doses of 7.5, 20, and 60 mg/kg were evaluated in conjunction with the administration of ABT. A 60-mg/kg dose QD without ABT was also evaluated as a control.
FIG 3 Dose-response of APX2096 and APX2097 in a murine model of cryptococcal meningitis in conjunction with ABT administration. ABT at 100 mg/kg was administered orally to male CD-1 mice at 2 h prior to each APX compound dose. Mice were injected with 4.8 × 10^4 CFU C. neoformans strain H99 per mouse via the lateral tail vein at time zero. Treatment with the APX compounds was initiated at 1 h postinfection by i.p. administration and continued for 7 days, with 100-mg/kg ABT being administered orally 2 h prior to each APX compound dose. The correction factors for prodrug potencies versus the potencies of the active moieties were similar enough such that the same factor (1.3) was used for all APX compounds. Fungal burden data were log10 transformed and evaluated using Kruskal-Wallis tests with Dunn's multiple-comparison test for post hoc analysis (Prism software, v5; GraphPad Software, Inc., San Diego, CA). […] A P value of ≤0.05 was considered statistically significant (*, P ≤ 0.05; **, P ≤ 0.01; ***, P ≤ 0.001). The 95% confidence interval (CI) is presented.
C. neoformans strain H99 was grown in yeast extract-peptone-dextrose broth at 30°C on a shaker (220 rpm) for 24 h, centrifuged (1,980 relative centrifugal force), and washed twice in phosphate-buffered saline (PBS), resuspended in PBS, and quantified by hemacytometric count. Male CD-1 mice were infected with ∼5 × 10^4 CFU per mouse via lateral tail vein injection of 100 μl. Mice were weighed, and treatment was begun within 1 h after infection. Treatments were administered daily for 7 days. Mice were weighed daily and observed for acute and chronic adverse symptoms. Mice were sacrificed on day 8, and the brain and left lung were homogenized and cultured for quantitative determination of the tissue burden (number of CFU per gram of tissue). Tissues were homogenized for 25 s in 1 ml phosphate-buffered saline using two 6.5-mm steel beads and a Mini-Beadbeater 16 apparatus (Biospec Products, Inc., Bartlesville, OK) and serially diluted in 10-fold steps. Aliquots (100 μl) of homogenate were plated and incubated for 3 to 7 days at 37°C. Fungal burden data were log10 transformed and evaluated using Kruskal-Wallis tests with Dunn's multiple-comparison test for post hoc analysis (Prism software, v5; GraphPad Software, Inc., San Diego, CA). A P value of ≤0.05 was considered statistically significant.

[2] = test system: C. neoformans; experiment: Broth microdilution susceptibility testing (CLSI M27-A3); type: cell-based, Cryptococcus neoformans; conditions: for MIC: Cryptococcus neoformans
Excerpt: (§1) C. neoformans strains H99, DUMC 118.00, and DUMC 158.03 and C. gattii strains R272 and RSA-MW-3515 were obtained from Duke University. C. albicans 90028, A. fumigatus MYA3626, C. neoformans 14116, C. neoformans 76484, and the pathogenic Cryptococcus reference strains panel (ATCC MP-11) were obtained from the American Type Culture Collection (ATCC; Manassas, VA, USA). The ATCC MP-11 panel consists of strains representing eight molecular types and three subtypes of C. neoformans and C. gattii.
(§2) To establish the antimicrobial activity of the APX001A analogs, broth microdilution susceptibility testing was performed according to Clinical and Laboratory Standards Institute (CLSI) guidelines M27-A3 ([47]) for yeasts and M38-A2 for molds ([48]). APX001A and analogs were first diluted in DMSO to obtain intermediate dilutions. These were further diluted in microtiter plates to obtain a final concentration of 2 to 0.002 μg/ml. One microliter of DMSO was added to the no-drug control wells. The solutions were mixed on a plate shaker for 10 min, and the plates were incubated at 35°C for 40 to 48 h (C. albicans, A. fumigatus) and 72 h (C. neoformans). The minimum concentration that led to a 50% reduction in fungal growth compared to that for the control (determined with the aid of a reading mirror) was determined as the MIC for C. albicans and C. neoformans. The minimum concentration that led to the shortening of hyphae compared to the hyphal growth in DMSO control wells was determined as the minimum effective concentration (MEC) for A. fumigatus (as read for the echinocandins). The use of the MIC and MEC endpoints for APX001A (formerly E1210) against yeasts and molds, respectively, has been described previously ([19][–][21]). For the cryptococcal synergy studies, APX001A and APX2020 MIC values were read at 50% inhibition.

[3] = test system: C. gattii; experiment: as above; type: cell-based; conditions: Cryptococcus gattii
Excerpt: as §1, §2

[4] = test system: C. albicans 90028; experiment: as above; type: cell-based, Candida albicans; conditions: Candida albicans, 90028; read-out: MIC, C. albicans 90028
Excerpt: as §1, §2

[5] = test system: A. fumigatus MYA3626; experiment: Broth microdilution susceptibility testing for molds (CLSI M38-A2); type: cell-based; conditions: Aspergillus fumigatus, MYA3626; read-out: MIC or MEC for A. fumigatus MYA3626
Excerpt: as §1, §2

[6] = test system: FLC-susceptible and FLC-nonsusceptible/resistant strains of C. neoformans and C. gattii; experiment: Broth microdilution, summary over the 18-strain Cryptococcus collection; type: cell-based, Cryptococcus neoformans and Cryptococcus gattii; conditions: for MIC90 / MIC: 18 strains of C. neoformans and C. gattii; for MIC: read-out: Geometric mean MIC
Procedure: as §2, with “The minimum concentration that led to the shortening of hyphae compared to the hyphal growth in DMSO control wells was determined as the minimum effective concentration (MEC) for A. fumigatus (as read for the echinocandins).” left out

[7] = Single-dose mouse pharmacokinetics of prodrugs with or without ABT; type: in vivo; conditions: for Ratio of AUC with ABT/AUC without ABT, i.p. dosing / Ratio of AUC with ABT/AUC without ABT, p.o. dosing: 26 mg/kg prodrug; for AUC: male, CD-1, mouse, plasma, 26 mg/kg
Procedure: The area under the curve (AUC) was calculated from time zero to the time of the last measurable concentration. The active metabolite concentrations in plasma (APX001A, APX2039, APX2020, and APX2041) were determined by liquid chromatography-tandem mass spectrometry. PK parameters were determined using Phoenix WinNonlin (v7.0) software and a noncompartmental model.

[8] = 72 h, Table 1, 50% growth inhibition for FLC, caspofungin and APX compounds, 100% for AMB, 72 h, read-out: MIC, C. neoformans H99
[9] = C. neoformans isolate 14116, read-out: MIC
[10] = C. neoformans isolate 76484, read-out: MIC
[11] = C. neoformans isolate DUMC 118.00 (FLC resistant), read-out: MIC
[12] = C. neoformans isolate DUMC 158.03 (FLC resistant), read-out: MIC
[13] = C. neoformans isolate MYA-4564, read-out: MIC
[14] = C. neoformans isolate MYA-4565, read-out: MIC
[15] = C. neoformans isolate MYA-4566, read-out: MIC
[16] = C. neoformans isolate MYA-4567, read-out: MIC
[17] = Table 2, C. neoformans isolate H99, read-out: MIC
[18] = C. gattii isolate MYA-4093, read-out: MIC
[19] = C. gattii isolate MYA-4094, read-out: MIC
[20] = C. gattii isolate MYA-4560 (first listing, r17), read-out: MIC
[21] = C. gattii isolate MYA-4560 (second listing, r21), read-out: MIC
[22] = C. gattii isolate MYA-4561, read-out: MIC
[23] = C. gattii isolate MYA-4562, read-out: MIC
[24] = C. gattii isolate MYA-4563, read-out: MIC
[25] = C. gattii isolate MYA-4877, read-out: MIC
[26] = C. gattii isolate RSA-MW-3615 (FLC resistant), read-out: MIC
[27] = Table 1, 50% growth inhibition for FLC, caspofungin and APX compounds, 100% for AMB, read-out: MIC, C. gattii WM276
[28] = intraperitoneal, AUC of analyte after 26 mg/kg prodrug, 100 mg/kg ABT orally 2 h before, read-out: Avg AUC resulting from 26-mg/kg dose, i.p. dosing + ABT
[29] = ip, AUC of analyte after 26 mg/kg of the corresponding prodrug, male CD-1 mice, no ABT, read-out: Avg AUC resulting from 26-mg/kg dose, i.p. dosing
[30] = po, AUC of analyte after 26 mg/kg prodrug, 100 mg/kg ABT orally 2 h before, read-out: Avg AUC resulting from 26-mg/kg dose, p.o. dosing + ABT
[31] = po, AUC of analyte in plasma after 26 mg/kg of the corresponding prodrug, male CD-1 mice, no ABT, read-out: Avg AUC resulting from 26-mg/kg dose, p.o. dosing

| MIC [2, 8] [µg/mL] | MIC [2, 9] [µg/mL] | MIC [2, 10] [µg/mL] | MIC [2, 11] [µg/mL] | MIC [2, 12] [µg/mL] | MIC [2, 13] [µg/mL] | MIC [2, 14] [µg/mL] | MIC [2, 15] [µg/mL] | MIC [2, 16] [µg/mL] | MIC [2, 17] [µg/mL] | MIC [3, 18] [µg/mL] | MIC [3, 19] [µg/mL] | MIC [3, 20] [µg/mL] | MIC [3, 21] [µg/mL] | MIC [3, 22] [µg/mL] | MIC [3, 23] [µg/mL] | MIC [3, 24] [µg/mL] | MIC [3, 25] [µg/mL] | MIC [3, 26] [µg/mL] | MIC [3, 27] [µg/mL] | SMILES | other results |
| --- | --- | --- | --- | --- | --- | --- | --- | --- | --- | --- | --- | --- | --- | --- | --- | --- | --- | --- | --- | --- | --- |
| – | – | – | – | – | – | – | – | – | – | – | – | – | – | – | – | – | – | – | – | Nn1nnc2ccccc21 [ABT, 1-Aminobenzotriazole, reference compound] | mean counts in brain tissue [1]: 8.07 ± 0.28 log10 CFU/g; mean counts in lung tissue [1]: 7.04 ± 0.34 log10 CFU/g |
| 0.008 | 0.004 | 0.004 | 0.016 | 0.031 | 0.004 | 0.031 | 0.008 | 0.016 | 0.004 | 0.016 | 0.016 | 0.008 | 0.008 | 0.016 | 0.016 | 0.016 | 0.008 | 0.004 | 0.004 | Nc1ncccc1-c1cc(Cc2ccc(Oc3cccc(F)n3)cc2)no1 [APX2039] | fold improved anti-C. neoformans H99 activity vs APX001A ([2]; from MIC values of Table 1): 32 fold; MIC [4]: 0.031 µg/mL; MIC [5]: 0.125 µg/mL; MIC90 [6]: 0.031 µg/mL; MIC [6]: 0.01 µg/mL; fold lower MIC values than APX001A versus Cryptococcus ([6]; Table 1 strains H99 and WM276): 32 fold; Ratio of AUC with ABT/AUC without ABT, i.p. dosing [7]: 8.3; Ratio of AUC with ABT/AUC without ABT, p.o. dosing [7]: 8.6; AUC [7, 28]: 97200 ± 12600 ng·h/mL; AUC [7, 29]: 11800 ± 1830 ng·h/mL; AUC [7, 30]: 91300 ± 20800 ng·h/mL; AUC [7, 31]: 10700 ± 480 ng·h/mL; fold higher exposure than the three other compounds ([7]; oral administration of prodrug with ABT): approximately 2 fold; fold higher AUC than the other compounds ([7]; prodrugs administered i.p.): approximately 2 fold |
| 0.031 | 0.016 | 0.016 | 0.063 | 0.125 | 0.016 | 0.125 | 0.063 | 0.031 | 0.031 | 0.125 | 0.063 | 0.016 | 0.016 | 0.031 | 0.031 | 0.031 | 0.016 | 0.016 | 0.016 | Nc1ncccc1-c1cc(Cc2ccc(OCc3ccccc3)nc2)no1 [APX2041] | MIC [4]: 0.031 µg/mL; MIC [5]: 0.016 µg/mL; MIC90 [6]: 0.125 µg/mL; MIC [6]: 0.034 µg/mL; Ratio of AUC with ABT/AUC without ABT, i.p. dosing [7]: 15.5; Ratio of AUC with ABT/AUC without ABT, p.o. dosing [7]: 14.3; AUC [7, 28]: 72600 ± 9070 ng·h/mL; AUC [7, 29]: 4680 ± 730 ng·h/mL; AUC [7, 30]: 49900 ± 10300 ng·h/mL; AUC [7, 31]: 3490 ± 270 ng·h/mL |

Source: paper PMC6105804, “In Vitro and In Vivo Evaluation of APX001A/APX001 and Other Gwt1 Inhibitors against Cryptococcus” (Antimicrobial Agents and Chemotherapy, 2018)
